Data: US11180809B2, “Biological markers for identifying patients for treatment with abiraterone acetate” (JANSSEN PHARMACEUTICA NV, priority 2014, dated 2021)

How the values were obtained:
[1] = tested on: metastatic castration-resistant prostate cancer (mCRPC); test: COU-AA-302: multivariate biomarker panel classifier (low/high risk) versus radiographic progression free survival, independent test set; format: in vivo, human; settings: test set (AA group), multivariate panel cutpoint 0.9977
Source text: (§1) COU-AA-302 is a Phase 3, multinational, randomized, double-blind, placebo-controlled study comparing the efficacy and safety of AA and prednisone (AA+P) to placebo and prednisone (Placebo+P) in medically or surgically castrated asymptomatic or mildly symptomatic men with mCRPC who have not received cytotoxic chemotherapy. Patients were assigned in a 1:1 ratio to receive either AA+P or Placebo+P and were stratified based on ECOG performance status of 0 or 1, as discussed in Clinical Study Protocol: A Phase 3 Randomized, Double-blind, Placebo-controlled Study of Abiraterone Acetate (CB7630) Plus Prednisone in Asymptomatic or Mildly Symptomatic Subjects with Metastatic Castration Resistant Prostate Cancer. Protocol COU-AA-302; EudraCT No. 2008-008004-41; 9 Jul. 2012.
(§2) All subjects in Study COU-AA-302, regardless of treatment group, received concurrent prednisone. See Clinical Study Report: CSR COU-AA-302 2012. A Phase 3, Randomized, Double-Blind, Placebo-Controlled Study of Abiraterone Acetate Plus Prednisone in Asymptomatic or Mildly Symptomatic Subjects With Metastatic Castration-Resistant Prostate Cancer. Issue Date: 26 Oct. 2012. Subjects who received AA+P are referred to herein as the “AA group” and in tables as “AA.” Subjects who received Placebo+P are referred to herein as the “Placebo group” and in tables as “Placebo.” Additional study related details can be obtained from the COU-AA-302 clinical study protocol or clinical study report.
A multivariate biomarker panel was identified using penalized regression to define a classifier that predicts radiographic progression free survival. The model was defined using an elastic net approach for feature selection and model specification. Data was separated into training and testing sets using a 70%-30% split. Within the training data, 10-fold cross-validation was used to define model parameters. Elastic net models have two parameters: alpha and lambda. Alpha is the elastic net penalty and determines the specific mixture of penalties that will be applied to limit complexity of the model. Lambda is the regularization penalty which determines the magnitude of the parameter used to limit complexity. After optimizing alpha and lambda using cross-validation, the values were used to define the cox regression model on the training data. The model is used to predict the relative risk of progression free-survival for all subjects in the training set. Then, time-dependent ROC analysis was used to determine the predictive power of the model and dichotomize the relative risk into two groups associated with low and high risk at the timepoint at which 90% of subjects with radiographic progression had observed recurrence of disease (t=20.48 months). This model, consisting of regression coefficients, timepoint and cutoff to discriminate between low and high risk, was applied to predict the relative risk of subjects in the independent test data and evaluate the predictive power and association with time to event of the classifier. This evaluation is repeated on the placebo data to confirm that the classifier is predictive of response to Abiraterone and not prognostic of outcome independent of treatment. Features used in the model building process included all single gene markers detected in greater than 50% of samples to exclude low expressing genes. The model was optimized to alpha=0.5 and lambda=0.209. Using these parameters, the optimized survival models were defined as described in Table 6.
Table 7 lists the predictive metrics which describe the performance of these models on the independent test and placebo group data.
Table 8 lists the statistics describing the association between classifier predictions and time to radiographic progression free survival.

[2] = tested on: metastatic castration-resistant prostate cancer (mCRPC); test: COU-AA-302 Phase 3 study: Cox regression association of tumor mRNA biomarker expression with rPFS/OS within the AA group; format: in vivo, human
Source text: as §1, §2
Formalin fixed paraffin embedded (FFPE) tumor samples from 258 subjects who optionally consented for RNA analysis were collected and shipped to the central laboratory (Covance, Ind.) for RNA analysis. FFPE samples from 152 subjects had sufficient RNA for TaqMan® Low Density Array (TLDA) analysis. Samples from the other 106 subjects were excluded either due to lack of tumor or low RNA yield. Of the 152 samples evaluated by TLDA, samples from 42 subjects were excluded from data analysis due to technical failures (no detectable gene expression or batch effects induced by microdissection of samples with low tumor content or low RNA input mass [<250 ng of total RNA]). The remaining evaluable samples from 110 subjects (Biomarker population) who were part of the ITT population (10%) and who had drug exposure with clinical data for at least one of the efficacy endpoints (rPFS, OS) were included in the analysis. Samples from these subjects were included in the mRNA analysis using the TaqMan® array microfluidic cards.
Raw CT values were filtered to remove values greater than 30. Quadruple replicate CT values were summarized using the geometric mean. Expression values were calculated using the comparative CT method as described in Schmittgen T D, Livak K J. Analyzing real-time PCR data by the comparative Ct method. Nature Protocols. 2008; 3:1101-1108. Briefly, a normalization factor was calculated for each sample using the geometric mean of housekeeping genes (ACTB and GAPDH). Relative expression values of all other transcripts were quantified as the difference between CT and the normalization factor. Transcript expression was calculated by the negation of the relative expression values to account for the inverse relationship between expression and CT. This is equivalent to the log 2 transform of 2^(-DeltaCT).
All statistical tests were interpreted at 5% significance levels (two-sided). For determination of specificity of biomarker association with clinical endpoints in AA group, a P<0.05 in the AA group and a P≥0.2 in the placebo group is required. Demographics and baseline characteristics were compared between the biomarker population and the ITT population using ANOVA (continuous variables) or Chi-Square (categorical variables) tests. […]

[3] = AA group (AA+prednisone), Cox regression with baseline ECOG, continuous log2 expression, (95% CI)
[4] = AA group, Cox regression with baseline ECOG, (95% CI)
[5] = AA group, multivariate Cox regression model

## CC(=O)O[C@H]1CC[C@@]2(C)C(=CC[C@@H]3[C@@H]2CC[C@]2(C)C(c4cccnc4)=CC[C@@H]32)C1 [AA, abiraterone acetate]
[1]; 95CI in next cell
  HR, High versus Low risk, time to radiographic progression free survival: 6.25
  Median time to radiographic progression free survival, High risk: 8.2
[1]; percentage of events
  Event/Total (Perc), rPFS, High risk: (100.0)
  Event/Total (Perc), rPFS, Low risk: (40.0)
[1]; timepoint 20.4813
  Event/Total, rPFS, High risk: 4/4
  Event/Total, rPFS, Low risk: 6/15
[2]; [3]
  HR, association of ANLN expression with rPFS (IND): 0.84 (0.72, 0.96)
  HR, association of ANLN expression with rPFS (INV): 0.80 (0.69, 0.93)
[2]; AA group, 1-0.84, unit = 2-fold difference relative to reference gene
  reduction of the hazard of rPFS event per unit increase in relative expression of ANLN: 16%
[2]; AA group, Cox regression
  HR, association of CYP17A1 and cofactors group composite score with OS: 0.20
  HR, association of androgen controlled group composite score with OS: 0.31
  HR, association of proliferation pathway module with rPFS (INV): 0.63
[2]; [4]
  HR, association of CYP17A1 and cofactors group composite score with rPFS (INV): 0.71 (0.37, 1.36)
  HR, association of HSD17B10 expression with rPFS (IND): 0.78 (0.62, 0.98)
  HR, association of HSD17B10 expression with rPFS (INV): 0.76 (0.62, 0.94)
  HR, association of NUSAP1 expression with rPFS (IND): 0.82 (0.67, 1.00)
  HR, association of NUSAP1 expression with rPFS (INV): 0.78 (0.64, 0.95)
  HR, association of SRD5A1 expression with rPFS (IND): 0.80 (0.65, 0.98)
  HR, association of SRD5A1 expression with rPFS (INV): 0.83 (0.68, 1.00)
  HR, association of UBE2C expression with rPFS (IND): 0.85 (0.74, 0.98)
  HR, association of UBE2C expression with rPFS (INV): 0.81 (0.71, 0.93)
[2]; [5]
  HR, association of ANLN expression with rPFS (IND), corrected for RNA extraction methodology: 0.86
  HR, association of HSD17B10 expression with rPFS (IND), corrected for RNA extraction methodology: 0.78
  HR, association of NUSAP1 expression with rPFS (IND), corrected for RNA extraction methodology: 0.78
  HR, association of SRD5A1 expression with rPFS (IND), corrected for RNA extraction methodology: 0.79
[2]; AA group, multivariate Cox regression model, trend of association
  HR, association of UBE2C expression with rPFS (IND), corrected for RNA extraction methodology: 0.88
